Assay results reported in PubChem BioAssay AID720587 (Broad Institute, 2013).
Active and inactive are the calls of the source.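 The calls were made as follows: active = fitted curve reaches -35% activity change at a concentration below twice the top valid dose tested; inactive = the rest, including effects opposite to the expected direction.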

Experiment: EWS/Fli1-dependent A673 cell killing, confirmation, CellTiter-Glo luminescence, cherry-pick retest (AID 720587)
Details: A673 Ewing sarcoma viability, CellTiter-Glo ATP luminescence, 72 h

Structure (SMILES): O=C(/C=C/c1ccc(Cl)cc1Cl)N(Cc1ccc(Cl)cc1)C1CCS(=O)(=O)C1 (configuration not stated)
- activity change, negative = cytotoxicity (at 26 µM (top of the series)): 2.8% (inactive)

Structure (SMILES): OCCN1CCN(C(=S)c2ccc(-c3ccccc3)cc2)CC1
- activity change, negative = cytotoxicity (at 26 µM (top of the series)): 6.18% (inactive)

Structure (SMILES): O=C1Nc2ccccc2C1=Nc1ccc(Br)cc1
- activity change, negative = cytotoxicity (at 26 µM (top of the series)): -3.12% (inactive)

Structure (SMILES): COCc1cc(C)nc2sc(C(=O)NCCO)c(-n3cccc3)c12
- activity change, negative = cytotoxicity (at 26 µM (top of the series)): 13.2% (inactive)

Structure (SMILES): Cc1ccc(N=C2NC(=O)/C(=C\c3cccs3)S2)cc1C
- activity change, negative = cytotoxicity (at 26 µM (top of the series)): 1.74% (inactive)

Structure (SMILES): C(=C\c1ccc(C2[C@H]3CNC[C@@H]2N3Cc2ccccn2)cc1)/c1ccccc1 (some centres not stated)
- activity change, negative = cytotoxicity (at 26 µM (top of the series)): -3.03% (inactive)

Structure (SMILES): N/C(Cc1nc(-c2ccc(F)cc2)cs1)=N\O
- activity change, negative = cytotoxicity (at 26 µM (top of the series)): -2.03% (inactive)

Structure (SMILES): COc1ccccc1NS(=O)(=O)c1cc(NC(=O)c2cc3ccccc3oc2=O)ccc1C
- activity change, negative = cytotoxicity (at 26 µM (top of the series)): 13% (inactive)

Structure (SMILES): Nc1ccc2oc(-c3cc(Br)ccc3Cl)nc2c1
- activity change, negative = cytotoxicity (at 26 µM (top of the series)): 2.05% (inactive)

Structure (SMILES): CCN1CCN(/C=N/c2nc3c(s2)CCCC3)CC1
- activity change, negative = cytotoxicity (at 26 µM (top of the series)): -1.1% (inactive)

Structure (SMILES): CCc1ccc(/C=C2\SC(=S)N(CCCC(=O)Nc3cc(C)on3)C2=O)cc1
- activity change, negative = cytotoxicity (at 26 µM (top of the series)): -3.29% (inactive)

Structure (SMILES): CCC(C)Cn1c(O)cc2nn(-c3nc4ccccc4s3)c(=O)c-2c1C (configuration not stated)
- activity change, negative = cytotoxicity (at 26 µM (top of the series)): -13.1% (inactive)

Structure (SMILES): Cc1ccc(/C=C/C(=O)N2CCN(S(=O)(=O)c3c(C)c(C)cc(C)c3C)CC2)o1
- activity change, negative = cytotoxicity (at 26 µM (top of the series)): 4.87% (inactive)

Structure (SMILES): Cc1ccsc1/C=N/Nc1cccc(C(=O)O)c1
- activity change, negative = cytotoxicity (at 26 µM (top of the series)): -8.75% (inactive)

Structure (SMILES): CC1(CCc2ccccc2)NC(=O)N(CC(=O)N2CC(=O)Nc3ccccc32)C1=O (configuration not stated)
- activity change, negative = cytotoxicity (at 26 µM (top of the series)): 7.32% (inactive)

Structure (SMILES): CCOc1ccc(C(c2c(NC(=O)c3ccccc3)sc(C)c2C)N2CCN(CCO)CC2)cc1 (configuration not stated)
- activity change, negative = cytotoxicity (at 26 µM (top of the series)): 9.4% (inactive)

Structure (SMILES): COc1ccc2oc(C(=O)NCCc3ccccc3)c(C)c2c1
- activity change, negative = cytotoxicity (at 26 µM (top of the series)): -2.64% (inactive)

Structure (SMILES): CC(C)(C)C(=O)Nc1ccc(N=Nc2ccccc2)cc1
- activity change, negative = cytotoxicity (at 26 µM (top of the series)): -13.9% (inactive)

Structure (SMILES): Cc1cc(C(=O)NNC(=O)c2ccc(S(=O)(=O)N(C)C)cc2)c(C)o1
- activity change, negative = cytotoxicity (at 26 µM (top of the series)): 1% (inactive)

Structure (SMILES): C(=N\Nc1ccc2ccccc2n1)/c1ccc2c(c1)OCO2
- activity change, negative = cytotoxicity (at 26 µM (top of the series)): -5.01% (inactive)

Structure (SMILES): CCOc1ccc(NC(=O)C(=O)N/N=C\c2ccc(CNS(=O)(=O)c3ccccc3)o2)cc1
- activity change, negative = cytotoxicity (at 26 µM (top of the series)): -1.27% (inactive)

Structure (SMILES): CCOC(=O)c1c(-c2ccc(C)cc2)csc1NC(=O)CCN1CCOCC1
- activity change, negative = cytotoxicity (at 26 µM (top of the series)): 3.44% (inactive)

Structure (SMILES): COc1ccc(CCC(C)NCC2CCCCC2)cc1 (configuration not stated)
- activity change, negative = cytotoxicity (at 26 µM (top of the series)): 2.42% (inactive)

Structure (SMILES): Cc1ccc2oc(/N=C(\N)NC(=O)C(C)(C)C)nc2c1
- activity change, negative = cytotoxicity (at 26 µM (top of the series)): -3.45% (inactive)

Structure (SMILES): O=C(O)c1ccc(N/N=C/c2cc(Br)cs2)cc1
- activity change, negative = cytotoxicity (at 26 µM (top of the series)): -5.62% (inactive)

Structure (SMILES): Cc1c(Cl)cnc(NC(=O)COC(=O)c2ccc3ncsc3c2)c1Cl
- activity change, negative = cytotoxicity (at 26 µM (top of the series)): 12.1% (inactive)

Structure (SMILES): CN(C)c1ccc(N=Nc2ccccc2Br)cc1
- activity change, negative = cytotoxicity (at 26 µM (top of the series)): -10.3% (inactive)

Structure (SMILES): CCCNC(=O)N1[C@H](C#N)[C@H](c2ccc(C#Cc3cccc(F)c3)cc2)[C@H]1CO
- activity change, negative = cytotoxicity (at 23.5 µM (top of the series)): 5% (inactive)

Structure (SMILES): N#Cc1cccc(-c2ccc(C3[C@@H]4CN(C(=O)Cc5ccncc5)C[C@H]3N4)cc2)c1 (some centres not stated)
- activity change, negative = cytotoxicity (at 26 µM (top of the series)): -0.912% (inactive)

Structure (SMILES): COc1cc(/C=N/NC(=O)c2csc3c2CCCC3)cc(OC)c1O
- activity change, negative = cytotoxicity (at 26 µM (top of the series)): 0.143% (inactive)

Structure (SMILES): O=C(CN1C(=O)C(=O)c2ccccc21)c1ccc(Cl)cc1
- activity change, negative = cytotoxicity (at 26 µM (top of the series)): -6.17% (inactive)

Structure (SMILES): COc1ccc(C(=O)Nc2cccc(C(=O)N/N=C/c3ccc(OC)cc3OC)c2)cc1
- activity change, negative = cytotoxicity (at 26 µM (top of the series)): -1.59% (inactive)

Structure (SMILES): Cc1ccsc1C(=O)OCC(=O)NCCC1=CCCCC1
- activity change, negative = cytotoxicity (at 26 µM (top of the series)): 2.01% (inactive)

Structure (SMILES): COc1ccc(Nc2oc(COc3ccccc3OC)nc2C#N)cc1
- activity change, negative = cytotoxicity (at 26 µM (top of the series)): 2.48% (inactive)

Structure (SMILES): COc1ccc2oc(-c3ccccc3)cc(=O)c2c1
- activity change, negative = cytotoxicity (at 26 µM (top of the series)): -12.3% (inactive)

Structure (SMILES): COc1cc(C(c2c(C)[nH][nH]c2=O)c2c(C)[nH][nH]c2=O)ccc1OC(C)C
- activity change, negative = cytotoxicity (at 26 µM (top of the series)): -4.73% (inactive)

Structure (SMILES): O=S(=O)(c1ccc(F)cc1)N1C[C@H]2[C@@H](c3ccccc31)[C@H](CO)N2Cc1ccccc1Cl
- activity change, negative = cytotoxicity (at 23.5 µM (top of the series)): -16.4% (inactive)

Structure (SMILES): Cc1ccc(NC(=O)CCN2CCCCC2)cc1
- activity change, negative = cytotoxicity (at 26 µM (top of the series)): 12.4% (inactive)

Structure (SMILES): CN(C)C(=O)c1cccc(-c2ccc(C3[C@@H]4CN(Cc5nccs5)C[C@H]3N4)cc2)c1 (some centres not stated)
- activity change, negative = cytotoxicity (at 26 µM (top of the series)): -4.24% (inactive)

Structure (SMILES): c1cncc(-c2ccc([C@@H]3[C@H]4CNC[C@@H]3N4CC3CCOCC3)cc2)c1
- activity change, negative = cytotoxicity (at 26 µM (top of the series)): 9.2% (inactive)

Structure (SMILES): C[C@@H]1CN([C@@H](C)CO)S(=O)(=O)c2ccc(C#Cc3ccncc3)cc2O[C@H]1CN(C)C(=O)C1CCOCC1
- activity change, negative = cytotoxicity (at 26 µM (top of the series)): -7.5% (inactive)

Structure (SMILES): COc1ccc(-c2sc3ccccc3c2-c2ccc(OCCN3CCCCC3)cc2)cc1
- activity change, negative = cytotoxicity (at 26 µM (top of the series)): -3.21% (inactive)

Structure (SMILES): Cc1occc1-c1n[nH]c(=S)n1C
- activity change, negative = cytotoxicity (at 26 µM (top of the series)): 1.91% (inactive)

Structure (SMILES): COc1ccc(C=NNc2nc3ccccc3s2)cc1
- activity change, negative = cytotoxicity (at 26 µM (top of the series)): 3.07% (inactive)

Structure (SMILES): COc1ccc(OC)c(-c2cc(C(F)(F)F)c3c(n2)sc2c(O)cc(=O)[nH]c23)c1
- activity change, negative = cytotoxicity (at 26 µM (top of the series)): -2.54% (inactive)

Structure (SMILES): Cc1ccc(S(=O)(=O)N(C)C[C@H]2Oc3c(cccc3N(C)C)C(=O)N([C@@H](C)CO)C[C@@H]2C)cc1
- activity change, negative = cytotoxicity (at 26 µM (top of the series)): -1.85% (inactive)

Structure (SMILES): CCCN(C)C[C@H]1Oc2ncc(-c3ccccc3)cc2C(=O)N([C@@H](C)CO)C[C@H]1C
- activity change, negative = cytotoxicity (at 26 µM (top of the series)): -4.17% (inactive)

Structure (SMILES): O=C(COC(=O)c1ccc[nH]c1=O)Nc1ccc(N2CCCCC2)cc1
- activity change, negative = cytotoxicity (at 26 µM (top of the series)): 0.213% (inactive)

Structure (SMILES): COc1ccc2nc(-c3ccc(F)cc3)sc2c1
- activity change, negative = cytotoxicity (at 26 µM (top of the series)): -14.9% (inactive)

Structure (SMILES): CCn1c(C)cc(C(=O)CN2C(=O)c3ccccc3S2(=O)=O)c1C
- activity change, negative = cytotoxicity (at 26 µM (top of the series)): 9.42% (inactive)

Structure (SMILES): COc1cc(OC)cc(-c2cc3nc(C)c(CCC(=O)O)c(C)n3n2)c1
- activity change, negative = cytotoxicity (at 26 µM (top of the series)): 0.866% (inactive)

Structure (SMILES): Cc1nc2cc(-c3ccc(Cl)cc3)nn2c(C)c1CCC(=O)NC(C)c1ccc2c(c1)OCCO2 (configuration not stated)
- activity change, negative = cytotoxicity (at 26 µM (top of the series)): -6% (inactive)

Structure (SMILES): COc1ccc2cc(C(N)=O)/c(=N\NC(=O)c3ccccc3)oc2c1
- activity change, negative = cytotoxicity (at 26 µM (top of the series)): -2% (inactive)

Structure (SMILES): CCOc1ccc(-c2cc(CCCC(=O)N3CCN(c4ccc(OC)cc4)CC3)no2)cc1
- activity change, negative = cytotoxicity (at 26 µM (top of the series)): 9.05% (inactive)

Structure (SMILES): COc1ccc(Cl)cc1S(=O)(=O)Nc1ccc2c(c1)n(C)c(=O)n2C
- activity change, negative = cytotoxicity (at 26 µM (top of the series)): -1.58% (inactive)

Structure (SMILES): C/C(=N\N(c1ccccc1)c1ccccc1)c1ccco1
- activity change, negative = cytotoxicity (at 26 µM (top of the series)): -1.2% (inactive)

Structure (SMILES): CC(C)(C)c1ccc(Oc2ccc(NC(=O)C3CC=CCC3C(=O)O)cc2)cc1 (configuration not stated)
- activity change, negative = cytotoxicity (at 26 µM (top of the series)): 6.05% (inactive)

Structure (SMILES): O=C(CCCCl)Nc1nc(-c2ccc3c(c2)OCCO3)cs1
- activity change, negative = cytotoxicity (at 26 µM (top of the series)): 10.2% (inactive)

Structure (SMILES): COCCCNc1ccn2nc(-c3ccccc3)cc2n1
- activity change, negative = cytotoxicity (at 26 µM (top of the series)): 0.68% (inactive)

Structure (SMILES): CCOc1ccc(-c2noc(CCC(=O)O)n2)cc1
- activity change, negative = cytotoxicity (at 26 µM (top of the series)): 6.68% (inactive)

Structure (SMILES): COc1ccccc1/C=C1\SC(=S)N(CCC(=O)Nc2cc(C)on2)C1=O
- activity change, negative = cytotoxicity (at 26 µM (top of the series)): 6.59% (inactive)

Structure (SMILES): Cc1cc2sc3ccc(C#CC4(O)CCCCC4)cc3c(=O)c2cc1C
- activity change, negative = cytotoxicity (at 26 µM (top of the series)): -2.73% (inactive)
